One data set concerns c-Kit. Briefly: c-Kit degradation in HEL92.1.7 cells (FACS-based degradation assay). As to conditions: treated about 18 h. Format: cell-based. As for the experimental part:
Two leukemia cell lines, HEL92.1.7 and Kasumi-1, were used for testing c-Kit degradation induced by Hsp90 inhibitors of the invention. The cells (3×10^5 per well) were treated with 17AAG (0.5 μM), or a compound of the invention for about 18 h. The cells were collected and centrifuged (SORVALL RT 6000D) at 1200 rpm for 5 min. The supernatants were discarded, and the cells were washed one time with 1×PBS. After centrifugation the cells were stained with FITC conjugated c-Kit antibody (MBL International, Cat# K0105-4) in […] 1×PBS at 4° C. for 1 h. The samples were read and analyzed with FACSCalibur flow cytometer (Becton Dicknson).
c-Kit, a tyrosine kinase receptor and one of the Hsp90 client proteins, was selected and used in a FACS-based degradation assay.

A short description of data set [1]: Exploratory small molecule PK study in rats. Format: in vivo, male Sprague-Dawley rats. On the set-up: AUClast: unit not given here. As to conditions: rat; for half-life: male, Sprague-Dawley, plasma, read-out: T½ (converted); for F: PO 25 mg/Kg D5W vs IV 5 mg/Kg DPD. Here is the method:
PK studies were conducted in male Sprague-Dawley rats. One group was dosed by IV (n=2) and another group was dosed orally (n=3). Blood samples were collected in lithium heparin coated microfuge tubes at 5 (IV only), 15, 30 min, 1, 3, 4, 6, 8, 24 h post dose. Samples were then centrifuged under refrigerated conditions and plasma was collected for analysis.
A solvent-based protein precipitation procedure was used to measure the concentration of each compound in plasma and/or whole blood. Samples were analyzed with an Agilent 1100 HPLC (Santa Clara, Calif.) interfaced to an API 4000 tandem mass spectrometer (Applied Biosystems, Foster City, Calif.) using a Synergy, Hydro-RP column (4 μm, 2×50 mm; Phenomenex, Torrance, Calif.) at a flow rate of 0.5 ml/min. Mobile phase consisted of 10 mM ammonium acetate in water (A) and 10 mM ammonium acetate in 95/5 (v/v) methanol/water (B). Total run time was 5 min with the gradient elution. […] All standard curves were fit to a quadratic equation with a weighing factor of 1/(concentration)^2 to calculate compound concentrations.

Data set [2] has as its system Her2. Put plainly: Fluorescent staining of Her2 on the surface of cells, FACS (BT474). It is filed as cell-based, Human. As for the experimental part: After treatment with a compound of the invention, cells are washed twice with 1×PBS/1% FBS, and then stained with anti-Her2-FITC (#340553, BD) for 30 min at 4° C. Cells are then washed three times in FACS buffer before the fixation in 0.5 ml 1% paraformadehyde. Data is acquired on a FACSCalibur system. Isotype-matched controls are used to establish the non-specific staining of samples and to set the fluorescent markers. A total 10,000 events are recorded from each sample. Data are analyzed by using CellQuest software (BD Biosciences).
After treatment with a compound of the invention, cells are washed twice with 1×PBS/1% FBS, and then stained with anti-Her2-FITC (#340553, BD) for 30 min at 4° C. Cells are then washed three times in FACS buffer before the fixation in 0.5 ml 1% paraformadehydrede. Data is acquired on a FACSCalibur system. Isotype-matched controls are used to establish the non-specific staining of samples and to set the fluorescent markers. A total 10,000 events are recorded from each sample. Data are analyzed by using CellQuest software (BD Biosciences).

The test system of data set [3] is Her2. Put plainly: Her2 degradation in BT-474 cells, ICW (LI-COR Odyssey imaging). Format: cell-based, Human. As to conditions: BT474 cells, 24 hours. As for the experimental part: All experiments were performed on day 1 after cell passage.
BT-474 cells were plated in the interior 60 wells of a 96 well black clear bottom plate (20,000 cells/well) in DMEM medium, with DMEM media in the surrounding 36 wells, and incubated at 37° C. with 5% CO2 overnight. On the second day, concentration response curve source plates were produced (10 point, 3-fold dilution of compounds in DMSO) followed by a 1:30 dilution in an intermediate dilution plate containing DMEM. Compound was transferred from the intermediate plate to the cell plate at a dilution of 1:10. The cells were incubated at 37° C. with 5% CO2 for 24 hours.
Cells were fixed in 4% phosphate buffered paraformaldehyde for 30 minutes at room temperature and then permeabilized by washing five times with 0.1% Triton X-100 in PBS for 5 minutes at room temperature on a shaker. Cells were blocked with Odyssey Blocking Buffer (LI-COR, #927-40000) on a shaker at room temperature for 1.5 hours followed by incubation with Her2 antibody (CST, #2165) diluted 1:400 in blocking buffer overnight on a shaker at 4° C. Cells were washed five times with 0.1% Tween-20 in PBS for 5 minutes at room temperature on a shaker and incubated with fluorescently labeled secondary antibody (LI-COR, #926-32211) diluted 1:1000 in blocking buffer, and DRAQ5 nuclear stain (Biostatus Limited, #DRAQ5) diluted 1:10,000, at room temperature on a shaker for 1 hour. Cells were washed 5 times with 0.1% Tween-20 in PBS for 5 minutes at room temperature on a shaker and imaged on a LI-COR Odyssey imaging station. The raw data was normalized to DRAQ5 and the Her2 EC50 were calculated using XLfit.

Like-named read-outs stand apart in the source and are kept apart here.

One may read the IC50 as the concentration that inhibits the measured activity by half. On to `Cc1n[nH]c2cc(O)c(-c3nnc(C(N)=O)n3-c3ccc(N4CCOCC4)cc3)cc12` [Compound 2, 5-(6-hydroxy-3-methyl-1H-indazol-5-yl)-4-(4-morpholinophenyl)-4H-1,2,4-triazole-3-carboxamide], for which 500 nM corresponded to half-maximal inhibition in the data set with c-Kit (IC50).

`Cc1n[nH]c2cc(O)c(-c3nnc(C(N)=O)n3-c3ccc4c(c3)OCO4)cc12` [Compound 4, 4-(benzo[d][1,3]dioxol-5-yl)-5-(6-hydroxy-3-methyl-1H-indazol-5-yl)-4H-1,2,4-triazole-3-carboxamide] showed an IC50 with c-Kit of 5000 nM.

Consider `Cc1n[nH]c2cc(O)c(-c3nnc(C(=O)NC4CC4)n3-c3ccc(N4CCOCC4)cc3)cc12` [Compound 5, N-cyclopropyl-5-(6-hydroxy-3-methyl-1H-indazol-5-yl)-4-(4-morpholinophenyl)-4H-1,2,4-triazole-3-carboxamide], for which the IC50 with c-Kit turned out to be 100 nM.

Take `CCc1n[nH]c2cc(O)c(-c3nnc(C(N)=O)n3-c3ccc(N4CCOCC4)cc3)cc12` [Compound 6, 5-(3-ethyl-6-hydroxy-1H-indazol-5-yl)-4-(4-morpholinophenyl)-4H-1,2,4-triazole-3-carboxamide]: in the data set with c-Kit, it took 20 nM to reach half-maximal inhibition (IC50).

Turning to `CCCc1n[nH]c2cc(O)c(-c3nnc(C(=O)NC4CC4)n3-c3ccc(N4CCOCC4)cc3)cc12` [Compound 8, N-cyclopropyl-5-(6-hydroxy-3-propyl-1H-indazol-5-yl)-4-(4-morpholinophenyl)-4H-1,2,4-triazole-3-carboxamide], the IC50 with c-Kit turned out to be 36 nM.

Turning to `CC(C)c1n[nH]c2cc(O)c(-c3nnc(C(N)=O)n3-c3ccc(N4CCOCC4)cc3)cc12` [Compound 9, 5-(6-hydroxy-3-isopropyl-1H-indazol-5-yl)-4-(4-morpholinophenyl)-4H-1,2,4-triazole-3-carboxamide], the half-inhibitory concentration (IC50) in the data set on c-Kit amounted to 40 nM.

Turning to `CC(C)c1n[nH]c2cc(O)c(-c3nnc(C(=O)NC4CC4)n3-c3ccc(N4CCOCC4)cc3)cc12` [Compound 10, N-cyclopropyl-5-(6-hydroxy-3-isopropyl-1H-indazol-5-yl)-4-(4-morpholinophenyl)-4H-1,2,4-triazole-3-carboxamide], half-maximal inhibition with c-Kit (IC50) was put at 7 nM.

Regarding `CCc1n[nH]c2cc(O)c(-c3nnc(O)n3-c3ccc4c(ccn4C)c3)cc12` [Compound 29, 3-ethyl-5-(5-hydroxy-4-(1-methyl-1H-indol-5-yl)-4H-1,2,4-triazol-3-yl)-1H-indazol-6-ol], in the data set on c-Kit, inhibition was half-maximal at 200 nM (IC50).

For the compound `CCc1n[nH]c2cc(O)c(-c3nnc(SCc4cccnc4)n3-c3ccc(N4CCOCC4)cc3)cc12` [Compound 30, 3-ethyl-5-(4-(4-morpholinophenyl)-5-(pyridin-3-ylmethylthio)-4H-1,2,4-triazol-3-yl)-1H-indazol-6-ol], 300 nM corresponded to half-maximal inhibition in the data set on c-Kit (IC50).

`CCc1n[nH]c2cc(O)c(-c3nnc(O)n3-c3cccc(N(C)C)c3)cc12` [Compound 31, 5-(4-(3-(dimethylamino)phenyl)-5-hydroxy-4H-1,2,4-triazol-3-yl)-3-ethyl-1H-indazol-6-ol] showed an IC50 in the data set on c-Kit greater than 20000 nM.

In the data set on c-Kit, `CCc1n[nH]c2cc(O)c(-c3nnc(O)n3-c3ccc(N4CCOCC4)cc3)cc12` [Compound 32, 3-ethyl-5-(5-hydroxy-4-(4-morpholinophenyl)-4H-1,2,4-triazol-3-yl)-1H-indazol-6-ol] returned an IC50 of 400 nM.

Consider `CCc1n[nH]c2cc(O)c(-c3nnc(O)n3-c3ccc(N4CCOCC4)nc3)cc12` [Compound 33, 3-ethyl-5-(5-hydroxy-4-(6-morpholinopyridin-3-yl)-4H-1,2,4-triazol-3-yl)-1H-indazol-6-ol], for which half-maximal inhibition in the data set with c-Kit (IC50) required 4000 nM.

Compound `CCc1n[nH]c2cc(O)c(-c3nnc(O)n3-c3ccc4c(c3)CC(N3CCOCC3)C4)cc12` (stereo not shown) [Compound 35, 3-ethyl-5-(5-hydroxy-4-(2-morpholino-2,3-dihydro-1H-inden-5-yl)-4H-1,2,4-triazol-3-yl)-1H-indazol-6-ol] had an IC50 in the data set with c-Kit greater than 20000 nM.

Consider `CCNC(=O)c1nnc(-c2cc3c(C(C)C)n[nH]c3cc2O)n1-c1ccc(CN2CCOCC2)cc1` [Compound 55, N-ethyl-5-(6-hydroxy-3-isopropyl-1H-indazol-5-yl)-4-(4-(morpholinomethyl)phenyl)-4H-1,2,4-triazole-3-carboxamide], for which, in data set [1] (IV 5 mg/Kg, DPD), the half-life was 1.7 h and the AUClast was 2.52. In data set [1] (PO 25 mg/Kg, D5W), the half-life is 4.3 h and the AUClast amounted to 24.4. In addition, the F in data set [1] is given as 197%.

In general, EC50 refers to the concentration needed to bring the measured effect to its halfway point. As to `CN1CCN(c2ccc(-n3c(O)nnc3-c3cc4c(C5CCC5)n[nH]c4cc3O)cc2)CC1` [Compound 70, 3-cyclobutyl-5-(5-hydroxy-4-(4-(4-methylpiperazin-1-yl)phenyl)-4H-1,2,4-triazol-3-yl)-1H-indazol-6-ol], the EC50 in the data set with Her2 [2] is greater than 1000 nM; in the data set with Her2 [3] it was 300 nM. Further, the half-maximal inhibitory concentration (IC50) in the data set on c-Kit is greater than 1000 nM.

For the compound `Oc1cc2[nH]nc(C3CCCC3)c2cc1-c1nnc(O)n1-c1ccc(N2CCOCC2)cc1` [Compound 71, 3-cyclopentyl-5-(5-hydroxy-4-(4-morpholinophenyl)-4H-1,2,4-triazol-3-yl)-1H-indazol-6-ol], the EC50 in the data set on Her2 [2] is 119 nM; with Her2 [3], 30 nM. Moreover, 106 nM corresponded to half-maximal inhibition with c-Kit (IC50).

For `CC(C)c1n[nH]c2cc(O)c(-c3nnc(O)n3-c3ccc(N4CCN(C)CC4)cc3)cc12` [Compound 72, 5-(5-hydroxy-4-(4-(4-methylpiperazin-1-yl)phenyl)-4H-1,2,4-triazol-3-yl)-3-isopropyl-1H-indazol-6-ol], in data set [1] (IV 5 mg/Kg, DPD), the half-life was 1.1 h and the AUClast is on record as 1.69. Further, in data set [1] (PO 25 mg/Kg, D5W), the half-life was 2.1 h and the AUClast came to 0.61. In addition, in data set [1], the F was found to be 7.57%.

Take `Oc1cc2[nH]nc(C3CCCC3)c2cc1-c1nnc(O)n1-c1ccc(CN2CCOCC2)cc1` [Compound 78, 3-cyclopentyl-5-(5-hydroxy-4-(4-(morpholinomethyl)phenyl)-4H-1,2,4-triazol-3-yl)-1H-indazol-6-ol]: the half-life in data set [1] (IV 5 mg/Kg, DPD) is 1.5 h; in data set [1] (PO 25 mg/Kg, D5W) it was 4.2 h. Moreover, the AUClast in data set [1] (IV 5 mg/Kg, DPD) worked out at 3.96; in data set [1] (PO 25 mg/Kg, D5W), 2.55. Further, the F in data set [1] was 13%.

As for `CC(C)c1cc(-c2n[nH]c(=O)n2-c2ccc3c(ccn3C)c2)c(O)cc1O` [ganetespib, reference compound], the 50% effective concentration (EC50) worked out at 18 nM in the data set with Her2 [2] and 20 nM in the data set on Her2 [3]. Half-maximal inhibition with c-Kit (IC50) was put at 4 nM.

The values above are taken from patent US20150051203A1, “TRIAZOLE DERIVATIVES AS HSP90 INHIBITORS” (Synta Pharmaceuticals Corp., priority 2012, published 2015).
